Experiments:
KCNQ2/3 channels = target: T1, KCNQ2/3 channels (Homo sapiens, UniProt O43525+O43526); assay: Fluorescence assay using a voltage sensitive dye (fluorimetry); type: cell-based; conditions: CHO-K1 cells expressing KCNQ2/3 channels; for Emax: relative to retigabine = 100%, read-out: Fluorimetry % efficacy (retigabine = 100%)
T1 construct: expressed in transfected cells; host or cells: CHO-K1
Procedure: Method I. Fluorescence Assay Using a Voltage Sensitive Dye (Fluorimetry)
[…] CHO-K1 cells expressing KCNQ2/3 channels are cultivated adherently at 37° C., 5% CO2 and 95% humidity in cell culture bottles (e.g. 80 cm^2 TC flasks, Nunc) with DMEM-high glucose (Sigma Aldrich, D7777) including 10% FCS (PAN Biotech, e.g. 3302-P270521) or alternatively MEM Alpha Medium (1×, liquid, Invitrogen, #22571), 10% fetal calf serum (FCS) (Invitrogen, #10270-106, heat-inactivated) and the necessary selection antibiotics.
Before being sown out for the measurements, the cells are washed with 1×DPBS buffer Ca^2+/Mg^2+-free (e.g. Invitrogen, #14190-094) and detached from the bottom of the culture vessel by using Accutase (PAA Laboratories, #L11-007) (incubation with Accutase for 15 min at 37° C.). The cell number is determined using a CASY™ cell counter (TCC, Schärfe System). Depending on the optimal density for each individual cell line, 20,000-30,000 cells/well/100 μl are seeded onto 96-well Corning™ CellBIND™ assay plates (Flat Clear Bottom Black Polystyrene Microplates, #3340). Freshly seeded cells are then left to settle for one hour at room temperature, followed by incubation for 24 hours at 37° C., 5% CO2 and 95% humidity.
The voltage-sensitive fluorescent dye from the Membrane Potential Assay Kit (Red™ Bulk format part R8123 for FLIPR, MDS Analytical Technologies™) is prepared by dissolving the contents of one vessel Membrane Potential Assay Kit Red Component A in 200 ml of extracellular buffer (ES buffer, 120 mM NaCl, 1 mM KCl, 10 mM HEPES, 2 mM CaCl2, 2 mM MgCl2, 10 mM glucose; pH 7.4). After removal of the nutrient medium, the cells are washed once with 200 μl of ES buffer, then loaded for 45 min at room temperature in 100 μl of dye solution in the dark.
Fluorescence measurements are carried out in a BMG Labtech FLUOstar™, BMG Labtech NOVOstar™ or BMG Labtech POLARstar™ instrument (525 nm excitation, 560 nm emission, Bottom Read mode). After incubation with the dye, 50 μl of the test substances in the desired concentrations, or 50 μl of ES buffer for control purposes, are applied to the wells of the assay plate and incubated for 30 min at room temperature while being shielded from light. The fluorescence intensity of the dye is then measured for 5 min and the fluorescence value F1 of each well is thus determined at a given, constant time. 15 μl of a KCl solution are then added to each well (final concentration of potassium ions 92 mM). The change in fluorescence intensity is subsequently monitored until all the relevant values have been obtained (mainly 5-30 min). At a given time post KCl application, a fluorescence value F2 is determined, in this case at the time of the fluorescence peak.
For calculation, the fluorescence intensity F2 is corrected for the fluorescence intensity F1, and the activity (ΔF/F) of the target compound on the potassium channel is determined as follows:
In order to determine whether a substance has agonistic activity,
[formula] can be related to
[formula] of control wells.
[formula] is determined by adding to the well only the buffer solution instead of the test substance, determining the value F1K of the fluorescence intensity, adding the potassium ions as described above, and measuring a value F2K of the fluorescence intensity. F2K and F1K are then calculated as follows: […]
A substance has an agonistic activity on the potassium channel if
[formula] is greater than
Independently of the comparison of
[formula] it is possible to conclude that a target compound has agonistic activity if
[formula] increases dose dependently.
Calculations of EC50 and IC50 values are carried out with the aid of ‘Prism v4.0’ software (Graph Pad Software™).

[1] = system: withdrawal reflex of the rat tail (tail flick) in response to a radiant heat beam; assay: Low-intensity tail flick test (rat); type: in vivo; conditions: po, peroral; for inhibition in vivo at 10 mg/kg / inhibition in vivo at 6.81 mg/kg: read-out: Low intensity tail flick, rat, peroral, MPE (dose)
Procedure: Method II. Low-Intensity Tail Flick Test (Rat)
In the low-intensity tail flick test, the determination of the antinociceptive effect of the compounds according to the invention towards an acute noxious thermal stimulus is carried out by measuring the withdrawal reflex of the rat tail (tail flick) in response to a radiant heat beam (analgesia meter; model 2011 of the company Rhema Labortechnik, Hofheim, Germany) according to the method described by D'Amour and Smith (J. Pharm. Exp. Ther. 72, 74 79 (1941). To this end, the rats were placed in a plexiglas restrainer, and a low-intensity radiant heat beam (48° C.) was focused onto the dorsal surface of the tail root. The stimulus intensity was adjusted to result in a mean pre-drug control withdrawal latency of about 7 s, thus also allowing a supraspinal modulation of the spinally mediated acute nociceptive reflex. A cutoff time of 30 s was applied to avoid tissue damage. Male Sprague-Dawley rats (Janvier, Le Genest St. Isle, Frankreich) with weights of 200-250 g were used. 10 rats were used per group. Before administration of a compound according to the invention, the animals were pre-tested twice in the course of five minutes and the mean of these measurements was calculated as the pre-test mean. The antinociceptive effect was determined at 20, 40 and 60 min after peroral compound administration. The antinociceptive effect was calculated based on the increase in the tail withdrawal latency according to the following formula and is expressed as percentage of the maximum possible effect (MPE [%]): MPE=[(T1−T0)/(T2−T0)]*100
In this, T0 is the control latency time before and T1 the latency time after administration of the compound, T2 is the cutoff time and MPE is the maximum possible effect. Employing variant analysis (repeated measures ANOVA) allowed testing of statistically significant differences between the compounds according to the invention and the vehicle group. The significance level was set to p≦0.05. To determine the dose dependency, the particular compound according to the invention was administered in 3-5 logarithmically increasing doses, including a threshold dose and a maximum effective dose, and the ED50 values were determined with the aid of regression analysis. The ED50 calculation was performed at the time of maximum efficacy (usually 20 min after administration of the compounds).

Compound	EC50 (KCNQ2/3 channels) [µM]	Emax (KCNQ2/3 channels) [%]	inhibition in vivo at 10 mg/kg [1] [%]	inhibition in vivo at 6.81 mg/kg [1] [%]	ED50 ([1]; at time of maximum efficacy) [mg/kg]
CCOc1nc2cc(C(F)(F)F)ccc2c(C)c1C(=O)NCc1cccc(C)c1 [Example 22, 2-ethoxy-4-methyl-N-(m-tolyl-methyl)-7-(trifluoromethyl)-quinoline-3-carboxylic acid amide]	0.058	111	20	–	–
CCOc1nc2cc(C(F)(F)F)ccc2c(C)c1C(=O)NCc1ccc(F)cc1 [Example 3, 2-ethoxy-N-[(4-fluorophenyl)-methyl]-4-methyl-7-(trifluoromethyl)-quinoline-3-carboxylic acid amide]	0.039	122	–	–	2.5

More lines, main results first:

EC50 (KCNQ2/3 channels) [µM]	Emax (KCNQ2/3 channels) [%]	Compound	inhibition in vivo at 10 mg/kg [1] [%]	inhibition in vivo at 6.81 mg/kg [1] [%]	ED50 ([1]; at time of maximum efficacy) [mg/kg]
0.057	122	COc1nc2cc(C(F)(F)F)ccc2c(C)c1C(=O)NCc1ccc(F)cc1 [Example 5, N-[(4-fluorophenyl)-methyl]-2-methoxy-4-methyl-7-(trifluoromethyl)-quinoline-3-carboxylic acid amide]	–	34	–
0.143	94	COCCOc1nc2cc(C(F)(F)F)ccc2c(C)c1C(=O)NCc1ccc(F)cc1 [Example 8, N-[(4-fluorophenyl)-methyl]-2-(2-methoxy-ethoxy)-4-methyl-7-(trifluoromethyl)-quinoline-3-carboxylic acid amide]	22	–	–
0.082	112	CCOc1nc2cc(C#N)ccc2c(C)c1C(=O)NCc1ccc(F)cc1 [Example 35, 7-cyano-2-ethoxy-N-[(4-fluorophenyl)-methyl]-4-methyl-quinoline-3-carboxylic acid amide]	–	32	–

Reference: patent US9073862B2, “Substituted 2-oxy-quinoline-3-carboxamides as KCNQ2/3 modulators” (Grünenthal GmbH, priority 2010, dated 2015)
